Active and inactive are the calls of the source. No cut-off for these calls is given here.

The experiment relates to KB. Description: Cytotoxicity against human KB cells at 4 ug/ml. Type of experiment: functional, cell-based.

As to `C[C@@H]1O[C@@H](O[C@H]2[C@H](O)[C@@H](O)[C@H](O[C@H]3[C@H](O)[C@@H](O)[C@H](O[C@@H]4[C@@H](O)[C@@H](O)[C@H](O[C@H]5[C@H](O)[C@@H](O)[C@H](O[C@H]6[C@H](O)[C@@H](O)[C@H](OC(=O)[C@]78CCC(C)(C)C[C@H]7C7=CC[C@@H]9[C@@]%10(C)CC[C@H](O[C@@H]%11O[C@@H](C)[C@H](O)[C@@H](O)[C@H]%11O[C@@H]%11O[C@H](CO)[C@@H](O)[C@H](O)[C@H]%11O)[C@@](C)(CO)[C@@H]%10CC[C@@]9(C)[C@]7(C)CC8)O[C@@H]6CO)O[C@@H]5CO)O[C@H]4C)O[C@@H]3CO)O[C@@H]2CO)[C@H](O)[C@H](O)[C@H]1O`, the outcome was inactive.
The value for `C[C@@H]1O[C@@H](O[C@H]2[C@H](O)[C@@H](O)[C@H](O[C@H]3[C@H](O)[C@@H](O)[C@H](OC(=O)[C@]45CCC(C)(C)C[C@H]4C4=CC[C@@H]6[C@@]7(C)CC[C@H](O[C@@H]8O[C@@H](C)[C@H](O)[C@@H](O[C@@H]9O[C@H](CO)[C@@H](O[C@@H]%10O[C@H](CO)[C@H](O)[C@H](O[C@@H]%11OC[C@@H](O)[C@H](O)[C@H]%11O)[C@H]%10O)[C@H](O)[C@H]9O)[C@H]8O[C@@H]8O[C@H](CO)[C@@H](O)[C@H](O)[C@H]8O)C(C)(C)[C@@H]7CC[C@@]6(C)[C@]4(C)C[C@H]5O)O[C@@H]3CO)O[C@@H]2CO)[C@H](O)[C@H](O)[C@H]1O` was “inactive”; that for `C[C@@H]1O[C@@H](O[C@H]2CC[C@@]3(C)[C@@H](CC[C@]4(C)[C@@H]3CC=C3[C@@H]5CC(C)(C)CC[C@]5(C(=O)O)CC[C@]34C)[C@]2(C)CO)[C@H](O[C@@H]2O[C@H](CO)[C@@H](O)[C@H](O)[C@H]2O)[C@H](O)[C@H]1O` was “inactive”.
`C[C@@H]1O[C@@H](O[C@H]2CC[C@]3(C)[C@H]4CC=C5[C@@H]6CC(C)(C)CC[C@]6(C(=O)O)CC[C@@]5(C)[C@]4(C)CC[C@H]3C2(C)C)[C@H](O[C@@H]2O[C@H](CO)[C@@H](O)[C@H](O)[C@H]2O)[C@H](O[C@@H]2O[C@H](CO)[C@@H](O[C@@H]3O[C@H](CO)[C@H](O)[C@H](O[C@@H]4OC[C@@H](O)[C@H](O)[C@H]4O)[C@H]3O)[C@H](O)[C@H]2O)[C@H]1O`: the result was inactive.
Under `C[C@@H]1O[C@@H](O[C@H]2CC[C@]3(C)[C@H]4CC=C5[C@@H]6CC(C)(C)CC[C@]6(C(=O)O)[C@H](O)C[C@@]5(C)[C@]4(C)CC[C@H]3C2(C)C)[C@H](O[C@@H]2O[C@H](CO)[C@@H](O)[C@H](O)[C@H]2O)[C@H](O[C@@H]2O[C@H](CO)[C@@H](O[C@@H]3O[C@H](CO)[C@H](O)[C@H](O[C@@H]4OC[C@@H](O)[C@H](O)[C@H]4O)[C@H]3O)[C@H](O)[C@H]2O)[C@H]1O` stands “inactive”; under `C[C@@H]1O[C@@H](O[C@H]2[C@H](O)[C@@H](O)[C@H](O[C@H]3[C@H](O)[C@@H](O)[C@H](OC(=O)[C@]45CCC(C)(C)C[C@H]4C4=CC[C@@H]6[C@@]7(C)CC[C@H](O[C@@H]8O[C@@H](C)[C@H](O)[C@@H](O[C@@H]9O[C@H](CO)[C@@H](O[C@@H]%10O[C@H](CO)[C@H](O)[C@H](O[C@@H]%11OC[C@@H](O)[C@H](O)[C@H]%11O)[C@H]%10O)[C@H](O)[C@H]9O)[C@H]8O[C@@H]8O[C@H](CO)[C@@H](O)[C@H](O)[C@H]8O)C(C)(C)[C@@H]7CC[C@@]6(C)[C@]4(C)CC5)O[C@@H]3CO)O[C@@H]2CO)[C@H](O)[C@H](O)[C@H]1O`, “inactive”.
